Values belong to the compound of their own block, whether it stands above or below them.
Legend:
muscarinic M1 receptors = target: T1, muscarinic M1 receptors (Homo sapiens, UniProt P11229); assay: Radioligand binding muscarinic M1 binding assay; details: for competition with [3H] N-methylscopolamine for binding to muscarinic M1 receptors: in words, refers to Table 1
T1 sequence (P11229 1-460): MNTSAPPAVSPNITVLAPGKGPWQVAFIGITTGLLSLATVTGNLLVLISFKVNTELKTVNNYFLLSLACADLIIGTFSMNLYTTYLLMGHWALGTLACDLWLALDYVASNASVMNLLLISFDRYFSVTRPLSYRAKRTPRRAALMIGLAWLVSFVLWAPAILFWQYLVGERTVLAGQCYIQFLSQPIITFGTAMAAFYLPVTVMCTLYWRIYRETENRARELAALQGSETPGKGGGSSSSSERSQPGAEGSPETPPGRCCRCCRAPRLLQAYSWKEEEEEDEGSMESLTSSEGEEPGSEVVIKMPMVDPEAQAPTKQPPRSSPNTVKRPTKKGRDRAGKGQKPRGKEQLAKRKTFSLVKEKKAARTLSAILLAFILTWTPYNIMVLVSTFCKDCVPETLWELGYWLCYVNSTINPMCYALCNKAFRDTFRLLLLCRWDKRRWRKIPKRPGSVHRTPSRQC
Experimental: (§1) The binding assay methodology was an adaptation of the methodology set out in Buckley N J, Bonner T I, Buckley C M and Brann M R (1989), Antagonist binding properties of five cloned muscarinic receptors expressed in CHO-K1 cells. Mol Pharmacol. 35(4): 469-476 and Luthin G R and Wolfe B B (1984), Comparison of [^3H]pirenzepine and [^3H]quinuclidinylbenzilate binding to muscarine cholinergic receptors in rat brain. J Pharmacol Exp Ther. 228(3):648-655.
(§2) The binding assay was performed under the following conditions:
(§3) Source: human recombinant CHO cells
(§4) Ligand: 0.8 nM [^3H] N-Methylscopolamine
(§5) Incubation Time/Temp: 2 hours at 25° C.
(§6) Incubation Buffer: 50 mM Tris-HCl, pH 7.4, 10 mM MgCl2, 1 mM EDTA
(§7) Non-specific Ligand: 1 μM Atropine
(§8) Quantification Method: radioligand binding Significance Criteria: ≧50% of max stimulation of inhibition

muscarinic M3 receptors = target: T2, muscarinic M3 receptors (Homo sapiens, UniProt P20309); assay: Radioligand binding muscarinic M3 binding assay; details: for competition with [3H] N-methylscopolamine for binding to muscarinic M3 receptors: in words, refers to Table 2
T2 construct: expressed in transfected cells; host or cells: CHO cells
Experimental: as §1, §2, §3, §4, §5, §6, §7
Bmax: 534 pmol/mg protein
as §8

[1] = test system: rats with denervation induced HDIR; assay: RIST, reversal of HISS dependent insulin resistance caused by anterior hepatic plexus denervation (Example 8); type: in vivo, male Spraque Dawely rats; details: for potentiation for reversing denervation induced HDIR: dose not stated (FIG. 1); for reversal of denervation induced HDIR: in words (FIG. 1); for % Potentiation: potentiation of denervated RIST index
Experimental: The test subjects were male Spraque Dawely rats (supplied by Charles River or The University of Manitoba) weighing between 222.0 to 375 g. The rats were separated into three test groups: For each test group, the rats were fasted for an 8 hour period and then re-fed for a 2 hour period. The rats were anesthetized with pentobarbital sodium (65 mg/kg) and were prepared surgically according to the standard animal preparation used to conduct a control RIST test (Lautt et al., 1998). After surgery the rat stabilizes for 30 minutes. Following the stabilization period and establishment of a baseline, a control RIST was carried out to show the amount of glucose needed to maintain euglycemia after a bolus administration of insulin (50 mU/kg i.v.). The animal underwent surgery to cause insulin resistance. Anterior plexus denervation and portal puncture was performed. After an hour of recovery time a post-denervation RIST was carried out. The inclusion criteria is a RIST index≧250 mg glucose/kg≦140 mg glucose/kg. For each test group, the test compound was administered at various doses μg/kg intraportal venous (0.5 mL bolus, rate of 0.05 mL/min plus 0.03 mL dead-space volume). Following administration of the test compound, a post-administration RIST was carried out and the potentiation calculated as follows: [(Reversal RIST Index−Blocked RIST Index)/Blocked RIST Index]×(100%)=% Potentiation. […] Each test group was repeated using various doses of each test compound to establish a dose-response curve. The doses were determined based upon initial findings.

[2] = test system: rats with insulin resistance produced by hepatic denervation; assay: RIST, insulin sensitivity in rats with insulin resistance produced by hepatic denervation (Examples 5-7); type: in vivo, male Spraque Dawely rats; details: total dose into the portal vein 0.001 to 0.1 μg/kg beginning 10 minutes prior to insulin (50 mU/kg i.v.); present-tense example
Experimental: The test subjects are male Spraque Dawely rats. The male rat is fasted for an 8 hour period and then re-fed for a 2 hour period. The rat is anesthetized with pentobarbital sodium (65 mg/kg) and is prepared surgically according to the standard animal preparation used to conduct a RIST test (Lautt et al., 1998). After surgery the rat stabilizes for 30 minutes.
Following the stabilization period and establishment of a baseline, a control RIST is carried out to show the amount of glucose needed to maintain euglycemia after a bolus administration of insulin (50 mU/kg i.v.).
The animal undergoes surgery to cause insulin resistance. Surgical denervation of hepatic nerves reaching the liver along the hepatic artery is done. After an hour of recovery time a RIST is then carried out.
Racemic bethanechol is administered to the rat that has been surgically denervated with a total dose into the portal vein of (0.001 to 0.1) μg/kg beginning 10 minutes prior to the insulin administration.
(R)-bethanechol is administered to the rat that has been surgically denervated with a total dose into the portal vein of (0.001 to 0.1) μg/kg beginning 10 minutes prior to the insulin administration.
(S)-bethanechol is administered to the rat that has been surgically denervated with a total dose into the portal vein of (0.001 to 0.1) μg/kg beginning 10 minutes prior to the insulin administration.

[3] = test system: hepatic glutathione (GSH); assay: Hepatic glutathione levels in denervated rats (Bioxytech GSH420 kit); type: in vivo; details: compared to animals treated with (R)-bethanechol or racemic bethanechol; present-tense example
Experimental: Hepatic glutathione (GSH) levels are determined for test animals from Example 8 which have a control RIST of ≧170 mg glucose/kg≦250 mg glucose mg/kg.
Following the post-denervation RIST analysis, a liver sample is taken from each test animal using cork borer #4 or #5 to remove a section of liver from the left lateral liver lobe. The top and bottom (1-2 mm) of the sample are trimmed and cut into 2 equal pieces. The samples are flash frozen on dry ice in tin foil, and are labeled with the experiment number and date. The samples are stored at −80 until GSH analysis is performed. Liver GSH levels are determined using the Bioxytech GSH420 kit.

[4] = compound 100 μm, 0.8 nM [3H] N-Methylscopolamine, human recombinant CHO cells
[5] = as compared to R-bethanechol and racemic bethanechol

T2 sequence (P20309 whole entry): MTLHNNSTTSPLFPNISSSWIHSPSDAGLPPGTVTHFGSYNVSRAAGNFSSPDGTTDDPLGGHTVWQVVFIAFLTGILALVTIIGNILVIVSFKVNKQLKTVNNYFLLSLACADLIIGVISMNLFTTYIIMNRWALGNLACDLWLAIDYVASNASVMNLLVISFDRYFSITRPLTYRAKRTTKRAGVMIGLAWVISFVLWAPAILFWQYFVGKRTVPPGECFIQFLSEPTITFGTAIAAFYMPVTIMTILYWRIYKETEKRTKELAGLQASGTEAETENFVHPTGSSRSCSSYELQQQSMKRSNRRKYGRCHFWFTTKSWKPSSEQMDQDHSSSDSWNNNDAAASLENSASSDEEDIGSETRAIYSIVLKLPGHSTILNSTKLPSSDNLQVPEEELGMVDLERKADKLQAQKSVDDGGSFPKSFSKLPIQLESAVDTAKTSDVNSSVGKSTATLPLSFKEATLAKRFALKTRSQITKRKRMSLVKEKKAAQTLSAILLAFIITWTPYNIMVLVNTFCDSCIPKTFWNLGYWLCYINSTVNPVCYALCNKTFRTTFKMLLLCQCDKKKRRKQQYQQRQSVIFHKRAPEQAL

- inhibition at 100 µM (muscarinic M1 receptors; [4]): -4%
- competition with [3H] N-methylscopolamine for binding to muscarinic M1 receptors (muscarinic M1 receptors): did not compete
- inhibition at 100 µM (muscarinic M3 receptors; [4]): -5%
- competition with [3H] N-methylscopolamine for binding to muscarinic M3 receptors (muscarinic M3 receptors): did not compete
Compound: CC(C[N+](C)(C)C)OC(N)=O (racemic) [racemic bethanechol, bethanechol]
- potentiation for reversing denervation induced HDIR [1]: ca. 52%
- reversal of denervation induced HDIR [1]: substantial reversal
- RIST index: restoration of insulin sensitivity [2]: restores insulin sensitivity

Compound: C[C@H](C[N+](C)(C)C)OC(N)=O.[Cl-] [(R)-bethanechol, (R)-(−)-2-Carbamyloxy-1-(N,N,N-trimethyl)-propylammonium chloride]
- % Inhibition (muscarinic M1 receptors; [4]): 0%
- competition with [3H] N-methylscopolamine for binding to muscarinic M1 receptors (muscarinic M1 receptors): did not compete
- % Inhibition (muscarinic M3 receptors; [4]): −11%
- competition with [3H] N-methylscopolamine for binding to muscarinic M3 receptors (muscarinic M3 receptors): did not compete
- reversal of denervation induced HDIR [1]: no significant reversal
- RIST index: restoration of insulin sensitivity [2]: does not significantly restore insulin sensitivity

Compound: C[C@@H](C[N+](C)(C)C)OC(N)=O.[Cl-] [(S)-bethanechol, (S)-(+)-2-Carbamyloxy-1-(N,N,N-trimethyl)-propylammonium chloride]
- binding affinity for muscarinic M1 receptors (muscarinic M1 receptors; [5]): significantly higher
- % Inhibition (muscarinic M1 receptors; [4]): 31%
- binding affinity for muscarinic M3 receptors (muscarinic M3 receptors; [5]): significantly higher
- % Inhibition (muscarinic M3 receptors; [4]): 42%
- % Potentiation ([1]; dose 0.005 μg/kg intraportal venous): −1.81%
- % Potentiation ([1]; dose 0.010 μg/kg intraportal venous): −13.01%
- % Potentiation ([1]; dose 0.025 μg/kg intraportal venous): 12.24%
- % Potentiation ([1]; dose 0.050 μg/kg intraportal venous): 34.66%
- % Potentiation ([1]; dose 0.100 μg/kg intraportal venous): 48.29%
- % Potentiation ([1]; dose 0.250 μg/kg intraportal venous): 58.16%
- % Potentiation ([1]; dose 0.500 μg/kg intraportal venous): 71.19%
- % Potentiation ([1]; dose 0.750 μg/kg intraportal venous): 69.08%
- % Potentiation ([1]; dose 2.000 μg/kg intraportal venous): 57.21%
- % Potentiation ([1]; dose 5.000 μg/kg intraportal venous): 40.27%
- potentiation for reversing denervation induced HDIR [1]: ca. 72%
- reversal of denervation-induced HDIR over dose range ([1]; doses ranging between 0.025 to 5.000 μg/kg, 0.250 to 2.000 μg/kg greatest % potentiation): reversed denervation-induced HDIR
- reversal of denervation induced HDIR [1]: substantial reversal
- RIST index: restoration of insulin sensitivity [2]: restores insulin sensitivity better than racemic bethanecol
- increases in hepatic GSH levels [3]: greater increases in hepatic GSH levels

Source: patent US20090324701A1, “COMPOSITIONS CONTAINING (S)-BETHANECHOL AND THEIR USE IN THE TREATMENT OF INSULIN RESISTANCE, TYPE 2 DIABETES, GLUCOSE INTOLERANCE AND RELATED DISORDERS” (DIAMEDICA, INC., priority 2006, published 2009)
